According to patent US5712148A (Synaptic Pharmaceutical Corporation, priority 1995, dated 1998):
Where “and” joins values, the source holds several entries; their conditions need not be identical. Equal values may be shown once. Read-outs that look alike come from different tables or passages of the source.

Legend:
[1] = molecular target: T1, hS1a (human betaine/GABA transporter, hBGT) (Homo sapiens, UniProt P48065); assay: Inhibition of specific [^3 H]GABA uptake in COS7 (transient) or LMtk- (stable; hS1a-3) cells expressing hS1a; assay type: cell-based; set-up: Translation of a long open reading frame predicts a protein of 614 amino acids with 12 putative transmembrane domains; expressed in transfected cells; settings: for inhibition at 100 µM / inhibition at 500 µM: read-out: % Inhibition of specific [^3 H]GABA uptake; for IC50: estimated from data for one or two concentrations of inhibitor (Table 1), not corrected for [^3 H]GABA concentration; for inhibitory potency at hS1a in words: inhibition of [^3 H]GABA uptake; for potency at hS1a vs dog and mouse transporters, in words: comparison across clones
T1 sequence (P48065 1-614 C10Y): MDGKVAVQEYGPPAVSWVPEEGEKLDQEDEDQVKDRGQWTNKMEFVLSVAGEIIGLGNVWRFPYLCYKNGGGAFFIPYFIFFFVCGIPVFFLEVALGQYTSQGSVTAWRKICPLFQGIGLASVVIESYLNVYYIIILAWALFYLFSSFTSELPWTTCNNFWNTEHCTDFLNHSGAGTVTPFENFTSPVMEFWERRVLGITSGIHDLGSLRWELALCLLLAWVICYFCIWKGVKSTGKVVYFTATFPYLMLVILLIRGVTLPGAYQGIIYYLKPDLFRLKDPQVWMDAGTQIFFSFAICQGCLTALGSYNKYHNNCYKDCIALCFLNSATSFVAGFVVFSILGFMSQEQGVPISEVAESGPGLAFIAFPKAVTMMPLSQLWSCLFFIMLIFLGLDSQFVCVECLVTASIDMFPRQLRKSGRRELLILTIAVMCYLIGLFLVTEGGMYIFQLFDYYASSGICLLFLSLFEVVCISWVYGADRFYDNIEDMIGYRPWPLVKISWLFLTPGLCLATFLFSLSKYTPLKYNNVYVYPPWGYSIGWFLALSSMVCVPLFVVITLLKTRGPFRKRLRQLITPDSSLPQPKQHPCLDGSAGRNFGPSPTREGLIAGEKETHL
Method: (§1) Transport was also measured in suspension. The details of this method will described in detail in a subsequent publication (Borden et al., manuscript in preparation). Briefly, transient (COS-7) or stable (LM) transfectants were removed from culture plates with trypsin/EDTA, and transferred to suspension culture. The cells were grown in a temperature-controlled shaking incubator, using a medium containing methylcellulose. To measure transport the cells were washed by centrifugation, and resuspended in HBS. The assay was performed in 96-well microtiter plates (total volume=0.25 ml/well). […] Cell-associated radioactivity retained on the filters was determined by scintillation counting.

[2] = tested on: mouse betaine/GABA transporter; assay: Inhibition at mouse betaine/GABA transporter clone (literature comparison); assay type: cell-based; settings: comparison across clones
Method: (§2) For example, the dog and mouse clones were expressed in oocytes, whereas we employed COS-7 or LMtk^- fibroblasts for the human clone. Additionally, we measured transport for 10 minutes at 37° C., while the dog clone was assayed for 30 minutes at 25° C. […] Another important factor is our use of suspension cultures.

[3] = tested on: dog betaine/GABA transporter; settings: data from Yamauchi et al., 1992; estimated from one or two concentrations of inhibitor; cited from earlier work
[4] = tested on: mouse betaine/GABA transporter; settings: data from Lopez-Corcuera et al., 1992; estimated from one or two concentrations of inhibitor; cited from earlier work
[5] = molecular target: T1, hS1a (human betaine/GABA transporter, hBGT); settings: in words
Method: as §1, §2

[6] = molecular target: T2, GAT-2 (Rattus norvegicus, UniProt P31646); assay: Affinity of GABA at GAT-2, suspension vs attached cells; assay type: cell-based; settings: Borden, unpublished
T2 sequence (P31646 1-602): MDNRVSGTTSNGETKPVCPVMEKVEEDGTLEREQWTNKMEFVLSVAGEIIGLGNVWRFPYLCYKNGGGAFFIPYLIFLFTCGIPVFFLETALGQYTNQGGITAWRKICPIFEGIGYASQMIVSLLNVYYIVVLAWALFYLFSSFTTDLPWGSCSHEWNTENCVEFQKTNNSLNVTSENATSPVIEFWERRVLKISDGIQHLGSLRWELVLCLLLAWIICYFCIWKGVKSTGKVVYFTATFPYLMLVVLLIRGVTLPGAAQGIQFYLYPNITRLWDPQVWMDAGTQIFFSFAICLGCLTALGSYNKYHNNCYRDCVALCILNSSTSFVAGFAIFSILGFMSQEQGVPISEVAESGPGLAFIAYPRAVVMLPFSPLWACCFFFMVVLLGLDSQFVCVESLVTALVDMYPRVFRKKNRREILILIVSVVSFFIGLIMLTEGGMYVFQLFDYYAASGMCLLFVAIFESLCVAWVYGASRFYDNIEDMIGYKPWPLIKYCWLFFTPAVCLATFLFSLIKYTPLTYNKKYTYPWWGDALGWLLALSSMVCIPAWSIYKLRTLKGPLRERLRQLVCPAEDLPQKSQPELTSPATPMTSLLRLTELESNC
Source text: […]. […] Another important factor is our use of suspension cultures. […]. Liu et al., 1992a).

[7] = molecular target: T3, GAT-3 (Rattus norvegicus, UniProt P31647); assay: Affinity of GABA at GAT-3, suspension vs attached cells; assay type: cell-based; settings: Borden, unpublished
T3 sequence (P31647 1-627): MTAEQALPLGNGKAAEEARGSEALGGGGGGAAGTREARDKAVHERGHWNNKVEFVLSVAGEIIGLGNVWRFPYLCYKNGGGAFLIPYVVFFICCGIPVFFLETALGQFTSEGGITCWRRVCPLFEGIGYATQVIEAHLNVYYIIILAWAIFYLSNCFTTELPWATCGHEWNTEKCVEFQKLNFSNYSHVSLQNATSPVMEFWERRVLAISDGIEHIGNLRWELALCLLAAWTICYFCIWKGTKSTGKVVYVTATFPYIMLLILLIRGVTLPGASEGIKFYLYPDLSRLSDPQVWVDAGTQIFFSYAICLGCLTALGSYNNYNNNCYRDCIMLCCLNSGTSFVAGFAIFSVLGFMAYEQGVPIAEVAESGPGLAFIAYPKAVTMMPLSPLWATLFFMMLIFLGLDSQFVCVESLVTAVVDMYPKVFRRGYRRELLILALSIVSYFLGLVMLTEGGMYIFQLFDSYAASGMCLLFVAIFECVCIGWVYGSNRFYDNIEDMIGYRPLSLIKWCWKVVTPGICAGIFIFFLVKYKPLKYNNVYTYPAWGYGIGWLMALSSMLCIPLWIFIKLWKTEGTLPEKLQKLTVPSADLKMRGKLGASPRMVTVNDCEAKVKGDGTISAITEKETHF
Method: as §2

[8] = tested on: dog betaine/GABA transporter; settings: Yamauchi et al., 1992, cited from earlier work

Row | Compound | inhibition at 100 µM [1] | IC50 [4] | IC50 ([1]; read-out: IC50 (human)) | inhibitory potency at hS1a in words [1] | further results
1 | NCC[C@H](N)C(=O)O [L-DABA, L-(2,4)diaminobutyric acid] | 24 ± 24% | – | – | – | –
2 | O=C(CCc1ccc(O)cc1)c1c(O)cc(O)cc1O [phloretin] | – | 37 µM | 258 µM | – | potency at mouse BGT vs dog or human clones, in words [2]: more potent at the mouse BGT than at the dog or human clones; IC50 [3]: 200 µM; inhibition at 500 µM [1]: 66%
3 | Cc1ccsc1C(=CCCN1CCC[C@@H](C(=O)O)C1)c1sccc1C [(R)-Tiagabine] | 12 ± 7% | – | – | weak inhibitors | –
4 | O=C(O)C1CCCNC1 (centres unmarked) [nipecotic acid] | 34 ± 19% | – | – | – | IC50 [3]: 4700 µM; potency at hS1a vs dog and mouse transporters, in words [1]: more potent at hS1a than at either of the other two transporters
5 | NCCCC(=O)O [GABA, γ-aminobutyric acid] | – | – | – | – | affinity of hBGT for GABA vs other GABA transporters [5]: lower than that of other GABA transporters; increase in affinity of GABA in suspension vs attached cells (GAT-2) [6]: about 10 fold; increase in affinity of GABA in suspension vs attached cells (GAT-3) [7]: about 10 fold; higher affinity of the transporter for GABA than for betaine [8]: 4 fold; affinity for GABA vs betaine, in words ([8]; betaine transporter cloned from MDCK dog kidney cells): higher affinity for GABA than for betaine
6 | O=C(O)C1=CCCNC1 [guvacine] | 5 ± 5% | 2800 µM | 1900 µM | weak inhibitors | –
7 | hydroxynipecotic acid [OH-nipecotic acid] | – | – | – | weak inhibitors | IC50 ([1]; 10 min, listed as Hydroxynipecotic acid, 10 min, read-out: IC50 (human)): > 1000 µM; IC50 ([1]; 10 min, read-out: IC50 (human)): 1150 µM; % Inhibition of specific [^3 H]GABA uptake ([1]; inhibitor 100 μM, 50 nM [^3 H]GABA, 10 minutes, 37° C., mean ± SEM): 8 ± 8%
8 | N[C@@H]1CCC[C@H](C(=O)O)C1 (relative stereo) [ACHC, cis-3-aminocyclohexanecarboxylic acid] | 0% | – | – | weak inhibitors | –
9 | C[N+](C)(C)CC(=O)O [betaine] | – | 206 µM | 258 µM and 150 to 250 µM | – | inhibition at 500 µM [1]: 66 ± 15%
10 | C=C[C@H]1C[N@@]2CC[C@H]1C[C@@H]2[C@@H](O)c1ccnc2ccc(OC)cc12 [quinidine] | 92% | 49 µM | – | – | IC50 ([1]; IC50 (human)): 488 µM and ~50 µM; inhibition at 500 µM [1]: 85%
11 | NCCC(=O)O [β-alanine] | 42 ± 22% | 1900 µM | 138 µM and 150 to 250 µM | – | IC50 [3]: 2400 µM; potency at hS1a vs dog and mouse transporters, in words [1]: more potent at hS1a than at either of the other two transporters
